Test results reported in patent publication US6410704B1 (priority 1991, dated 2002).

Target: herpes protease (HSV-1 UL26 product, Pra) (Human herpesvirus 1, UniProt P10210)
Format: biochemical

herpes protease (HSV-1 UL26 product, Pra), sequence (P10210 whole entry, looked up): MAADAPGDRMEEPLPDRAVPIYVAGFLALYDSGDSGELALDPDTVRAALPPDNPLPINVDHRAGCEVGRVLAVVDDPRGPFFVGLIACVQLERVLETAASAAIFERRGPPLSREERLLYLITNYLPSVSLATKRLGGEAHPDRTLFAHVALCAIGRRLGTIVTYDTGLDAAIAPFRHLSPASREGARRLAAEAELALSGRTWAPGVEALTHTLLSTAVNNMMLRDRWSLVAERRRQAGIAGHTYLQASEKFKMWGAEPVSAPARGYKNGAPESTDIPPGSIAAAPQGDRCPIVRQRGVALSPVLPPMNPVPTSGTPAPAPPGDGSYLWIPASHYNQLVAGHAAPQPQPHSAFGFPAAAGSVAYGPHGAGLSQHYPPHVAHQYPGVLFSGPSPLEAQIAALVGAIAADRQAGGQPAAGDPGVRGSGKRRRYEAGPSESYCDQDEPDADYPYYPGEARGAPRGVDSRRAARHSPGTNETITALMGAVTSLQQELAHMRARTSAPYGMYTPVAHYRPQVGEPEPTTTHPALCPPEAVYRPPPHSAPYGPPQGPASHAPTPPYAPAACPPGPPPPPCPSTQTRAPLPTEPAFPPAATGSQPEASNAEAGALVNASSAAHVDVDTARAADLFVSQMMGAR

O=S(=O)(F)Cc1ccccc1 [Phenylmethansulfonyl fluoride]
inhibition of the protease self-cleavage: partially inhibiting

CCCCCCCCCCCCOS(=O)(=O)[O-].[Na+] [SDS, sodium dodecyl sulphate]
inhibition of the protease self-cleavage: 100%

CC(C)C[C@H](NC(=O)[C@@H](NC(=O)N[C@@H](Cc1ccccc1)C(=O)O)[C@@H]1CCN=C(N)N1)C(=O)N[C@H](C=O)Cc1ccccc1 [chymostatin]
inhibition of the protease: 100%
